The nature of the data set: Hemolytic activity in human type A RBC assessed as concentration required to cause 75% hemolysis after 1 hr by microtitre plate. Format: ADME, cell-based. Particulars: erythrocyte.

Where a SMILES comes first, the peptide text is derived from it. Bridges are numbered along the chain shown (N, C = ends).

As to `CC(C)C[C@@H]1NC(=O)CNC(=O)[C@H](CC(N)=O)NC(=O)[C@H](Cc2cnc[nH]2)NC(=O)[C@H]([C@@H](C)O)NC(=O)[C@@H]2CSSC[C@@H]3NC(=O)[C@H]([C@@H](C)O)NC(=O)CNC(=O)CNC(=O)[C@H](Cc4ccccc4)NC(=O)[C@@H]4CSSC[C@H](NC(=O)[C@H]([C@@H](C)O)NC(=O)[C@H](CSSC[C@H](NC(=O)[C@H]([C@@H](C)O)NC(=O)[C@@H]5CCCN5C1=O)C(=O)NCC(=O)N[C@@H](CCC(=O)O)C(=O)N[C@@H]([C@@H](C)O)C(=O)N4)NC(=O)CNC(=O)[C@@H]1CCCN1C(=O)[C@H]([C@@H](C)O)NC(=O)[C@H](CC(N)=O)NC3=O)C(=O)N[C@@H](CC(=O)O)C(=O)N1CCC[C@H]1C(=O)N[C@@H](Cc1c[nH]c3ccccc13)C(=O)N1CCC[C@H]1C(=O)N[C@@H](C(C)C)C(=O)N2` [CYCLOVIOLACIN O24] (cyclo(CDPWPVCTHNGLPTCGETCFGGTCNTPGCT); disulfide 1-19, 7-24, 15-29), the Activity turned out to be 25 µM.

(Values after ChEMBL document CHEMBL1799917, “Isolation, sequencing, and structure-activity relationships of cyclotides” (J Nat Prod, 2010).)
